Our source for the K app and Ratio values is ChEMBL document CHEMBL1124855, “Synthesis and muscarinic activities of 1,2,4-thiadiazoles” (J Med Chem, 1990).

Assay [1] concerns the target T1, Muscarinic acetylcholine receptor (Rattus norvegicus) (UniProt P08482+P08483+P08485+P08911+P10980).
Description: Affinity to displace radioligand [3H]oxotremorine (OXO) at muscarinic acetylcholine receptor from rat cortical homogenate.
Assay [2] has as its target T1, Muscarinic acetylcholine receptor (Rattus norvegicus). The source holds these as a separate data set.
Description: Ability to displace radioligand [3H]N-methylscopolamine (NMS) at muscarinic acetylcholine receptor from rat cortical homogenate.
Assay [3] deals with Muscarinic acetylcholine receptor (Rattus norvegicus). Put plainly: Ratio of [3H]N-methylscopolamine (NMS) to [3H]oxotremorine (OXO) at Muscarinic acetylcholine receptor from rat cortical homogenate.
In assay [4] the target is T1, Muscarinic acetylcholine receptor (Rattus norvegicus). Put plainly: Ability to displace radioligand [3H]N-methylscopolamine (NMS) at Muscarinic acetylcholine receptor from rat cortical homogenate.

Structures are written as SMILES.

Consider `c1ccc(Cc2nsc(C3CN4CCC3CC4)n2)cc1` (stereo not given), for which the figures for the K app in assay [1] and in assay [2] were 0.014 µM and 0.082 µM, respectively.
For the compound `Cc1nsc(C2=CCCN(C)C2)n1`, the K app in assay [1] is 0.0089 µM; in assay [2] it was 1.4 µM.
As for `CC(C)c1nsc([C@H]2CN3CCC2C3)n1` (stereo not given in full), the K app in assay [1] worked out at 0.055 µM; in assay [2], 0.4 µM.
Consider `CN1CCC=C(c2ncno2)C1`, for which the K app in assay [1] came out at 0.0077 µM; in assay [2], 8.9 µM. Besides, the Ratio in assay [3] was found to be 1200.
With `c1ccc(Cc2nsc([C@@H]3CN4CCC3C4)n2)cc1` (stereo not given in full), the K app is 0.074 µM in assay [1] and 0.34 µM in assay [2].
`C1CC1c1nsc([C@H]2CN3CCC2C3)n1` (stereo not given in full): the K app worked out at 0.019 µM in assay [1] and 0.16 µM in assay [2].
For the compound `Cc1nsc([C@@H]2CN3CCC2C3)n1` (stereo not given in full), the K app in assay [1] was found to be 0.00062 µM; in assay [2] it was 0.62 µM.
Taken in the same sequence, the figures for `CCc1nsc([C@H]2CN3CCC2C3)n1` (stereo not given in full) were 0.033 µM and 0.51 µM.
Take `Cc1nsc(C2=CCCNC2)n1`: the K app in assay [1] is 0.0021 µM; in assay [2], 0.95 µM.
Consider `COc1nsc(C2CN3CCC2CC3)n1` (stereo not given), for which the figures for the K app in assay [1] and in assay [2] were 0.033 µM and 0.9 µM, respectively.
Turning to `CSc1nsc(C2CN3CCC2CC3)n1` (stereo not given), the K app was found to be 0.012 µM in assay [1] and 0.12 µM in assay [2].
On to `COC(=O)C1=CCCNC1`, for which the K app came out at 0.017 µM in assay [1] and 20 µM in assay [2].
The corresponding values for `OC(c1ccccc1)(c1ccccc1)c1nsc(C2CN3CCC2CC3)n1` (stereo not given) are 6.8e-05 µM and 0.0002 µM.
Turning to `c1nsc([C@@H]2CN3CCC2C3)n1` (stereo not given in full), the K app in assay [1] stood at 0.0056 µM; in assay [4], 6.4 µM.
As to `c1ccc(Cc2nsc([C@H]3CN4CCC3C4)n2)cc1` (stereo not given in full), the K app in assay [1] was 0.061 µM; in assay [2] it was 0.54 µM.
Turning to `c1nsc([C@H]2CN3CCC2C3)n1` (stereo not given in full), the K app is 0.0013 µM in assay [1] and 1.4 µM in assay [2].
Taken in the same sequence, the figures for `CCc1nsc([C@@H]2CN3CCC2C3)n1` (stereo not given in full) were 0.005 µM and 0.29 µM.
For `COc1nsc([C@H]2CN3CCC2C3)n1` (stereo not given in full), the K app worked out at 0.017 µM in assay [1] and 1.8 µM in assay [2].
Turning to `CN1CCC=C(c2ncns2)C1`, the K app in assay [1] was found to be 0.027 µM; in assay [2], 11 µM.
Regarding `Cc1nsc(C2CN3CCC2CC3)n1` (stereo not given), the figures for the K app in assay [1] and in assay [2] were 0.00078 µM and 0.36 µM, respectively.
Take `CN(C)c1nsc([C@H]2CN3CCC2C3)n1` (stereo not given in full): the K app in assay [1] turned out to be 0.098 µM; in assay [2] it was 0.99 µM.
As to `CC(C)c1nsc([C@@H]2CN3CCC2C3)n1` (stereo not given in full), the K app worked out at 0.041 µM in assay [1] and 0.29 µM in assay [2].
The corresponding values for `Cc1nsc(C2CCNC2)n1` (stereo not given) are 0.054 µM and 18 µM.
Turning to `c1nsc(C2CN3CCC2CC3)n1` (stereo not given), the K app amounted to 0.0077 µM in assay [1] and 3.3 µM in assay [2].
The corresponding values for `COc1nsc([C@@H]2CN3CCC2C3)n1` (stereo not given in full) are 0.006 µM and 2 µM.
Taken in the same sequence, the figures for `C1CC1c1nsc([C@@H]2CN3CCC2C3)n1` (stereo not given in full) were 0.004 µM and 0.21 µM.
For `Cc1noc(C2=CCCN(C)C2)n1`, the Ratio in assay [3] turned out to be 390.
In the case of `C1=C(c2ncns2)CNCC1`, the K app turned out to be 0.014 µM in assay [1] and 11 µM in assay [2].
On to `C1CC1c1nsc(C2CN3CCC2CC3)n1` (stereo not given), for which the K app in assay [1] was determined as 0.0028 µM; in assay [2], 0.023 µM.
Take `Cc1nsc([C@H]2CN3CCC2C3)n1` (stereo not given in full): the values for the K app in assay [1] and in assay [2] were 0.00045 µM and 0.37 µM, respectively.
With `CC(C)c1nsc(C2CN3CCC2CC3)n1` (stereo not given), the results for the K app in assay [1] and in assay [2] were 0.0031 µM and 0.033 µM, respectively.
Regarding `CN(C)c1nsc(C2CN3CCC2CC3)n1` (stereo not given), the K app turned out to be 0.023 µM in assay [1] and 0.14 µM in assay [2].
Turning to `CN(C)c1nsc([C@@H]2CN3CCC2C3)n1` (stereo not given in full), the values for the K app in assay [1] and in assay [2] were 0.062 µM and 0.84 µM, respectively.
Taken in the same sequence, the figures for `Cc1nsc(C2CCN(C)C2)n1` (stereo not given) were 0.15 µM and 36 µM.
On to `CCc1nsc(C2CN3CCC2CC3)n1` (stereo not given), for which the K app in assay [1] was determined as 0.009 µM; in assay [2], 0.082 µM.
